Tests used:
[1] = biological target: Tyrosine-protein kinase CSK (Homo sapiens, UniProt P41240); test: Inhibition of CSK ACT labeling site harbouring VSDFGLTKEASSTQDTGKLPVKWTAPEALR in human Huh-7 cells at 10 uM by KiNativ Profiling analysis relative to control; type: cell-based
[2] = biological target: RPS6KA1/RPS6KA2/RPS6KA3 (Homo sapiens) (UniProt P51812+Q15349+Q15418); test: Inhibition of RSK1/2/3 Domain 1 K2 labeling site harbouring DLKPENILLDEEGHIK in human Huh-7 cells at 10 uM by KiNativ Profiling analysis relative to control; type: cell-based
[3] = biological target: Tyrosine-protein kinase Fer (Homo sapiens, UniProt P16591); test: Inhibition of FER K1 labeling site in human Huh-7 cells at 1 uM by KiNativ Profiling analysis relative to control; type: cell-based
[4] = biological target: Serine/threonine-protein kinase 4 (Homo sapiens) (UniProt Q13043); test: Inhibition of MST1 (unknown origin) at 1 uM by Ambit Kinomescan binding assay relative to control
[5] = biological target: Serine/threonine-protein kinase MARK2 (Homo sapiens) (UniProt Q7KZI7); test: Inhibition of MARK2 Lys2 labeling site harbouring FIVHRDLKAENLLLDADMNIK in human A-375 cells at 0.5 uM by KiNativ Profiling analysis relative to control; type: cell-based
[6] = biological target: Tyrosine-protein kinase receptor UFO (Homo sapiens) (UniProt P30530); test: Inhibition of AXL ACT labeling site in human A-375 cells at 5 uM by KiNativ Profiling analysis relative to control; type: cell-based
[7] = biological target: T1, Phosphatidylinositol 5-phosphate 4-kinase type-2 gamma (Homo sapiens) (UniProt Q8TBX8); test: Inhibition of PIP4K2C ATP labeling site harbouring TLVIKEVSSEDIADMHSNLSNYHQYIVK in human A-375 cells at 0.5 uM by KiNativ Profiling analysis relative to control; type: cell-based
T1 sequence (whole entry): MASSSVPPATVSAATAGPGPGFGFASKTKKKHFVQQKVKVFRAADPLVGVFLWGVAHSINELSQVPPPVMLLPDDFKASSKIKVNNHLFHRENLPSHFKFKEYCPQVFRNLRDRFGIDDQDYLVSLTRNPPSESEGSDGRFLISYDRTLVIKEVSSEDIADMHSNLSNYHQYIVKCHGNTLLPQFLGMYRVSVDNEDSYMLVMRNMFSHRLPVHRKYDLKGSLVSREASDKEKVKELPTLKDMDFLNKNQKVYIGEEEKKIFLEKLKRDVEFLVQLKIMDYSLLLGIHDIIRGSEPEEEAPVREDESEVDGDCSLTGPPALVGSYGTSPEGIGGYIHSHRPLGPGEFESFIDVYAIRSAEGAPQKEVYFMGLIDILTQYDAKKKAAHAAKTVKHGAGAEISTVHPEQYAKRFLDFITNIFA

[8] = biological target: T2, Eukaryotic translation initiation factor 2-alpha kinase 3 (Homo sapiens) (UniProt Q9NZJ5); test: Inhibition of PEK Lys2 labeling site in human Huh-7 cells at 1 uM by KiNativ Profiling analysis relative to control; type: cell-based
T2 sequence (whole entry): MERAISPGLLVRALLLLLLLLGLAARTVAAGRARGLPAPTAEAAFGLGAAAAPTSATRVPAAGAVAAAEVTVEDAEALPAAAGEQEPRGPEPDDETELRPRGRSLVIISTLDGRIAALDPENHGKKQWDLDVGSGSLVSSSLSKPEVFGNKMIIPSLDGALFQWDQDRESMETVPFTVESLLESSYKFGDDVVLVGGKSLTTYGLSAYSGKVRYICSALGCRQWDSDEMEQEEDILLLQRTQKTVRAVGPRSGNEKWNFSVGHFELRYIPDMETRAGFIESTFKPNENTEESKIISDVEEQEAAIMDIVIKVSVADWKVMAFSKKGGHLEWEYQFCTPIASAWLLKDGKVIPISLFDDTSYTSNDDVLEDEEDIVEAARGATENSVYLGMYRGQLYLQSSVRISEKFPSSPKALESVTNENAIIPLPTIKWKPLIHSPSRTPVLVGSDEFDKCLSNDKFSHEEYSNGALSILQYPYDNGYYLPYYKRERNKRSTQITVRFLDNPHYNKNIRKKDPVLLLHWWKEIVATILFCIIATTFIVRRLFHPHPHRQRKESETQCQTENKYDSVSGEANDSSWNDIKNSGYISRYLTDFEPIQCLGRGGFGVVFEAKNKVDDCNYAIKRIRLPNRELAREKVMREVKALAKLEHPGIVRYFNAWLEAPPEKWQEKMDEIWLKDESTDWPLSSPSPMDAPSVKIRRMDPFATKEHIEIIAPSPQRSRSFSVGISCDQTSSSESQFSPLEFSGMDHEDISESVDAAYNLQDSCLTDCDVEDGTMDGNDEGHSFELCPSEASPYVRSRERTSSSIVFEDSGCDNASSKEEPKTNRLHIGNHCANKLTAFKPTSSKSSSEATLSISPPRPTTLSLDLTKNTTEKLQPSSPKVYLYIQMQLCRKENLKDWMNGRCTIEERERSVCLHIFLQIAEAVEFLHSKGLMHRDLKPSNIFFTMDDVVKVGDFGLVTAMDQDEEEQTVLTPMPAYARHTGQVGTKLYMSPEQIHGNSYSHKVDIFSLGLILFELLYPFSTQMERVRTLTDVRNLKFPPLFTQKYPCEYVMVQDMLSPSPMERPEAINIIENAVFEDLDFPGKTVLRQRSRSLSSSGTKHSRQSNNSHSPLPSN

[9] = biological target: T3, Serine/threonine-protein kinase 3 (Homo sapiens) (UniProt Q13188); test: Inhibition of MST2 Lys2 labeling site harbouring DIKAGNILLNTEGHAK in human Huh-7 cell lysate at 1 uM by KiNativ Profiling analysis relative to control; type: subcellular
T3 sequence (whole entry): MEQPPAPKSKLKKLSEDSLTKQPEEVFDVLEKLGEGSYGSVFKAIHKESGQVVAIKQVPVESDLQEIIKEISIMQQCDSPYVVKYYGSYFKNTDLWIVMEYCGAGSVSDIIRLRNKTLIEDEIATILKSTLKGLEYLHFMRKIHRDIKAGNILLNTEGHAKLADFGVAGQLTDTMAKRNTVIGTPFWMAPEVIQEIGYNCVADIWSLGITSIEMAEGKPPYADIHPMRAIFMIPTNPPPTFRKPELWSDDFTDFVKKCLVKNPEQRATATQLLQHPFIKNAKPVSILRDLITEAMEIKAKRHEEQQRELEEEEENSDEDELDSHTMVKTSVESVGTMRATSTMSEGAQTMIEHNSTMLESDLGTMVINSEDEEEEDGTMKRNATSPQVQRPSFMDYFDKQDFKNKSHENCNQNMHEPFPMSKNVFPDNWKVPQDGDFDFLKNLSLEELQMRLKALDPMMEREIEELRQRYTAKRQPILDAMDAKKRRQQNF

[10] = biological target: Serine/threonine-protein kinase ATR (Homo sapiens) (UniProt Q13535); test: Inhibition of ATR in human Huh-7 cells at 1 uM by KiNativ Profiling analysis relative to control; type: cell-based
Serine/threonine-protein kinase ATR (Homo sapiens), sequence (Q13535 whole entry, looked up): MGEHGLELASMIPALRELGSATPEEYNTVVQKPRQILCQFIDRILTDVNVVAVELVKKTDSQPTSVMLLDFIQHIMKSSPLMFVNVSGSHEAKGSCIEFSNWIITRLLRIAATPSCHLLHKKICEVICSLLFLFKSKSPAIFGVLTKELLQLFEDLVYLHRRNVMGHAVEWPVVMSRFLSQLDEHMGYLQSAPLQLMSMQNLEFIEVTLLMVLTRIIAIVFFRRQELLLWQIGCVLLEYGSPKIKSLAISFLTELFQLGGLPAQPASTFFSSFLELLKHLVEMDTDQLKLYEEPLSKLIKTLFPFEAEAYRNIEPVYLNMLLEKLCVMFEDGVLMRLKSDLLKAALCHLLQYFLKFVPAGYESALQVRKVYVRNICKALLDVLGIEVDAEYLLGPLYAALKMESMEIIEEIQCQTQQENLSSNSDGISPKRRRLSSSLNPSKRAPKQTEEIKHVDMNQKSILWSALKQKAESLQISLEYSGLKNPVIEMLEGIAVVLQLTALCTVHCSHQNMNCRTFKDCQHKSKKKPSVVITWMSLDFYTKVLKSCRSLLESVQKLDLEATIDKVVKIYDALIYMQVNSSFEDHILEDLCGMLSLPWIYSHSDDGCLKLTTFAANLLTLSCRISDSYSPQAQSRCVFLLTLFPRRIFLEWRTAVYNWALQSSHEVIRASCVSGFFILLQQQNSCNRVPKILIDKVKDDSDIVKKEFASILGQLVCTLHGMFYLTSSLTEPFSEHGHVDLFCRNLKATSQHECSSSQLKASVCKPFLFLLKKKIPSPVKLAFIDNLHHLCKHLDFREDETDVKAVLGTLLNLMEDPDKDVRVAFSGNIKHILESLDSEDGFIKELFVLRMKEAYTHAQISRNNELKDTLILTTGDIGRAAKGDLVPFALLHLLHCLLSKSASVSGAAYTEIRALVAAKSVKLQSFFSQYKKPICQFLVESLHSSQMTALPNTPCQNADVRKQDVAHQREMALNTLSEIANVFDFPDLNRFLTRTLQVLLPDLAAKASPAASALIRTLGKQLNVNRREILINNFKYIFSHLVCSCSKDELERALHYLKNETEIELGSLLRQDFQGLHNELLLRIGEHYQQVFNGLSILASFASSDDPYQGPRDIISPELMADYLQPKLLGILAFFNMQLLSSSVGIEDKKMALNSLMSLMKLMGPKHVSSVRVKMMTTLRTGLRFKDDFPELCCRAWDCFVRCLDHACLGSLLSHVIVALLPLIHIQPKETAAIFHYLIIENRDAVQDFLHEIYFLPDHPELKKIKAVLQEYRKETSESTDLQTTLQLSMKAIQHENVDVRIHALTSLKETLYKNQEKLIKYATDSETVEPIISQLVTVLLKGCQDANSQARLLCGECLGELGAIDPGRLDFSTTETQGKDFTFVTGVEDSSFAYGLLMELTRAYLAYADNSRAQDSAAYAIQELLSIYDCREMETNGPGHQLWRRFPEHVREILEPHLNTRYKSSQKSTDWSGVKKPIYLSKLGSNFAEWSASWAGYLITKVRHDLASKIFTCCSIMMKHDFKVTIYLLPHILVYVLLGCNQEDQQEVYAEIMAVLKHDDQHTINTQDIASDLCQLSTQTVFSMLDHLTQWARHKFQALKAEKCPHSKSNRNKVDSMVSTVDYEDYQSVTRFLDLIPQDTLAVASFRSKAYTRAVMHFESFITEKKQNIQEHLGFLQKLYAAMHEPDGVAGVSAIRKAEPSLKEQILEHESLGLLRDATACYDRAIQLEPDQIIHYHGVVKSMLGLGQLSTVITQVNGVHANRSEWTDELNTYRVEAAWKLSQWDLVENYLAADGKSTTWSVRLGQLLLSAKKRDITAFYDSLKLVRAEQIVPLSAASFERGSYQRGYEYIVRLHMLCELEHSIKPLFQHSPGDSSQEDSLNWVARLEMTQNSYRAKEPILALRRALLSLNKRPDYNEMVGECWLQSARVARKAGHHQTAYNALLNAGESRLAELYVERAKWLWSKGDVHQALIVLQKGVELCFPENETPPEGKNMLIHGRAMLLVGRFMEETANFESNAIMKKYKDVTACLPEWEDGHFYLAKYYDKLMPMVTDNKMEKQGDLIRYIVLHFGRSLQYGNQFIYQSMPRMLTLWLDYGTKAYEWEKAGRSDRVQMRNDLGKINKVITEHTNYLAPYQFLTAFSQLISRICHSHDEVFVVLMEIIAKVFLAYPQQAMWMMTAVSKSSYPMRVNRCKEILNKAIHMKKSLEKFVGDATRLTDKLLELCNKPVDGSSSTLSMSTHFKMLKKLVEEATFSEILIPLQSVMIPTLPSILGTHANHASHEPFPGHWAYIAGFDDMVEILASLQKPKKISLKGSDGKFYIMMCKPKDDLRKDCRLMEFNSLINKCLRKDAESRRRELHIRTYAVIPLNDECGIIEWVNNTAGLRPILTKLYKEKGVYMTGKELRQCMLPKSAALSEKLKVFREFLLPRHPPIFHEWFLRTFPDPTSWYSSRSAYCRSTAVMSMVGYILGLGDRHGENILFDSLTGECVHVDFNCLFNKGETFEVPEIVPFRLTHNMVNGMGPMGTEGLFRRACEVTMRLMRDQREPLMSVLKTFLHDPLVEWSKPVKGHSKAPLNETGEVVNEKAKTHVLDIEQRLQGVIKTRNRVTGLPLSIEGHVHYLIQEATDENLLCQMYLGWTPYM

Serine/threonine-protein kinase 4 (Homo sapiens), sequence (Q13043 whole entry, looked up): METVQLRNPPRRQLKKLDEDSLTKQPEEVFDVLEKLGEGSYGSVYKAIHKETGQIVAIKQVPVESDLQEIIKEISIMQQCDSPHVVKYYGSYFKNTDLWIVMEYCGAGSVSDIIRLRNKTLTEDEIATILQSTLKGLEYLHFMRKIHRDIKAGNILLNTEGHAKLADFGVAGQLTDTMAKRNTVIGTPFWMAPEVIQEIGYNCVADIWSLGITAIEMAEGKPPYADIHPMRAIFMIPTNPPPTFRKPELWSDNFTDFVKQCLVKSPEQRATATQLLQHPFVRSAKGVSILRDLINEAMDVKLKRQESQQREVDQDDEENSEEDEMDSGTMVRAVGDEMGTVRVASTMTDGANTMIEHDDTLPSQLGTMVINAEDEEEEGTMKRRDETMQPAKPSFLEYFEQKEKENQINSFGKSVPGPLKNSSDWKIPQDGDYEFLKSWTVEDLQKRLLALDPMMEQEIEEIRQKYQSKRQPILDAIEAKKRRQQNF
Serine/threonine-protein kinase MARK2 (Homo sapiens), sequence (Q7KZI7 whole entry): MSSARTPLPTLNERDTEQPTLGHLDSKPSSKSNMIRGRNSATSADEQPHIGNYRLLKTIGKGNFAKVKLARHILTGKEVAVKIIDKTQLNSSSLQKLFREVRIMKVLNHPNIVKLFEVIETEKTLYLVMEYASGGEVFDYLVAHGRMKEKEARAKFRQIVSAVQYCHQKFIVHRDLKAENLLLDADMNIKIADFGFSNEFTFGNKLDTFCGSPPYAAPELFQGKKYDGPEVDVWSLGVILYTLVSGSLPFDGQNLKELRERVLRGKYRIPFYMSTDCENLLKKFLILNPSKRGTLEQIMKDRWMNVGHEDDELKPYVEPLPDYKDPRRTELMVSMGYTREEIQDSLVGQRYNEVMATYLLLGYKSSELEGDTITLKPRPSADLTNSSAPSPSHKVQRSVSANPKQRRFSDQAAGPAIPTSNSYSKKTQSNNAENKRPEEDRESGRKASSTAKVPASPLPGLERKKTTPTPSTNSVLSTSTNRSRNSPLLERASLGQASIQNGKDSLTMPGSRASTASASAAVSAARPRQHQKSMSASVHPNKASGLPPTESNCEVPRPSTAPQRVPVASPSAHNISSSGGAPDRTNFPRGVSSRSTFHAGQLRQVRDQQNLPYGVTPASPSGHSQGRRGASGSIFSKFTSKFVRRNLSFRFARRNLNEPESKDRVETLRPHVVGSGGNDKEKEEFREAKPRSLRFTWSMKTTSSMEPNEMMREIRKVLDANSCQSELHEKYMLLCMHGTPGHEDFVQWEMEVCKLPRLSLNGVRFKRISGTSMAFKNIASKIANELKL
Tyrosine-protein kinase CSK, sequence (P41240 2-450 limits assumed): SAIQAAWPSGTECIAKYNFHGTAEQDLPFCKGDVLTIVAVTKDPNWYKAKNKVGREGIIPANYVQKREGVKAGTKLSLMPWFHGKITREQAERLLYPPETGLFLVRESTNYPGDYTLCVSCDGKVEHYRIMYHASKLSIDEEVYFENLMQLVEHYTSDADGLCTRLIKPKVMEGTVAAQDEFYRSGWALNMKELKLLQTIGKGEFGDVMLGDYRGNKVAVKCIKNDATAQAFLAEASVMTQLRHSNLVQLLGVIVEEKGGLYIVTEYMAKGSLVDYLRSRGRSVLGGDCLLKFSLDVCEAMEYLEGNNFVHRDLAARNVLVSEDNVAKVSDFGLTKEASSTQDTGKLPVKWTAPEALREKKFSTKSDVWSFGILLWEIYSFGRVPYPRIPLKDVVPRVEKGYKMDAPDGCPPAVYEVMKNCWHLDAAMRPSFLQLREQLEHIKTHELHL

CCN1CCN(Cc2ccc(NC(=O)c3ccc(C)c(Oc4ccnc5[nH]ccc45)c3)cc2C(F)(F)F)CC1
inhibition [1]: -2.7% | inhibition [2]: 8.7% | inhibition [3]: 52.4%

CCN1CCN(Cc2ccc(NC(=O)c3ccc(C)c(/C=C/c4cnc5[nH]ccc5c4OC)c3)cc2C(F)(F)F)CC1
inhibition [4]: 72% | inhibition [5]: 2.9% | inhibition [6]: -6.1% | inhibition [7]: 5.9%

CNc1cc(Oc2cc(C(=O)Nc3cc(N4CCN(C)CC4)cc(C(F)(F)F)c3)ccc2C)ncn1
inhibition [8]: 16.8% | inhibition [9]: 8.2% | inhibition [10]: 29.3%

— ChEMBL document CHEMBL5696442, “Discovery of type II inhibitors of TGFβ-activated kinase 1 (TAK1) and mitogen-activated protein kinase kinase kinase kinase 2 (MAP4K2)” (J Med Chem, 2015)
